Reference: patent US20120289501A1, “Benzene-fused 6-membered oxygen-containing heterocyclic derivatives of bicyclic heteroaryls” (NOVARTIS AG, priority 2009, published 2012)

Each compound was assayed against IGF1R (Homo sapiens, UniProt P08069) (assay: Cellular IGF-1R assay: inhibition of IGF1R phosphorylation in transduced Hek293 cells, capture ELISA (MSD)).
Format: cell-based
Parameters: Hek293 cells transduced with the corresponding receptors; expressed in transfected cells; host or cells: Hek293 (Hek293-IGF1R)
Procedure: In this assay the activity of the compounds of the invention against Insulin-like growth factor I (IGF-1) induced autophosphorylation of the IGF-IR is determined. The assay is conducted as follows: Compound-mediated inhibition of IGF1R and INSR phosphorylation in Hek293 cells transduced with the corresponding receptors is assessed in a capture ELISA format using the MSD (Meso Scale Discovery) platform. Briefly, 30′000 cells washed and diluted in starvation medium (DMEM high glucose supplemented with 0.1% BSA) are seeded in 90 μL per well into 96-well plates pre-coated with poly-D-lysine (0.1 mg/mL in PBS/0). After 24 h incubation at 37° C. and 5% CO2, dose-response effects are determined with 3-fold serial compound dilutions, starting at 10 μM. The final vehicle concentration is 0.1% DMSO in all wells. Following pre-incubation with compounds for 1 h, receptor phosphorylation is triggered by a 10 min exposure to 1.0 ng/μL IGF for Hek293-IGF1R cells, and 5.0 ng/μL insulin for Hek293-InsR cells. Cell lysis is achieved by addition of 80 μL MSD lysis buffer per aspirated well, incubation on ice for 20 min, and a freeze-thaw cycle. Target phosphorylation is then assessed by transferring volumes corresponding to approx. 6 μg Hek293-IGF1R or 0.6 μg Hek293-InsR lysates to MSD assay plates pre-coated with total-IGF1R or total-InsR Abs, respectively. After incubation for 2 h at rt, wells are exposed for 1 hr to a rabbit monoclonal antibody (CST #3024, 1:1000) detecting pIGF1R(Tyr1135/1136) as well as pINSR(Tyr1150/1151). Immune complexes are detected by a SULFO-Tag™-coupled anti-rabbit IgG antibody in the presence of 150 μL MSD read-buffer. Light emission at 620 nm triggered by application of electric current is recorded on a MSD SectorImager 6000. Acquired raw data (mean Ru-ECL units) are processed in an Excel analysis template. The plate blank (MSD lysis buffer) is subtracted from all data points. The effect of a particular test compound concentration on receptor phosphorylation is expressed relative to the window defined by ligand-stimulated vs unstimulated control cells (set as 100%). IC50 values [nM] are determined using 4-parametric curve-fitting (XLfit software, V4.3.2). Alternatively, the assay can be conducted with a slightly different format; Compound-mediated inhibition of IGF-1R and InsR phosphorylation in HEK293 cells overexpressing the corresponding receptors were assessed by quantitative Western blot using an Odyssey infrared imager as readout.
Compound-mediated inhibition of IGF1R and INSR phosphorylation in Hek293 cells transduced with the corresponding receptors is assessed in a capture ELISA format using the MSD (Meso Scale Discovery) platform. Briefly, 30′000 cells washed and diluted in starvation medium (DMEM high glucose supplemented with 0.1% BSA) are seeded in 90 μL per well into 96-well plates pre-coated with poly-D-lysine (0.1 mg/mL in PBS/O). After 24 h incubation at 37° C. and 5% CO2, dose-response effects are determined with 3-fold serial compound dilutions, starting at 10 μM. The final vehicle concentration is 0.1% DMSO in all wells. Following pre-incubation with compounds for 1 h, receptor phosphorylation is triggered by a 10 min exposure to 1.0 ng/μL IGF for Hek293-IGF1R cells, and 5.0 ng/μL insulin for Hek293-InsR cells. Cell lysis is achieved by addition of 80 μL MSD lysis buffer per aspirated well, incubation on ice for 20 min, and a freeze-thaw cycle. Target phosphorylation is then assessed by transferring volumes corresponding to approx. 6 μg Hek293-IGF1R or 0.6 μg Hek293-lnsR lysates to MSD assay plates pre-coated with total-IGF1R or total-lnsR Abs, respectively. After incubation for 2 h at rt, wells are exposed for 1 hr to a rabbit monoclonal antibody (CST #3024, 1:1000) detecting pIGF1R(Tyr1135/1136) as well as pINSR(Tyr1150/1151). Immune complexes are detected by a SULFO-Tag™-coupled anti-rabbit IgG antibody in the presence of 150 μL MSD read-buffer. […]

Sequence of IGF1R (P08069 31-1367): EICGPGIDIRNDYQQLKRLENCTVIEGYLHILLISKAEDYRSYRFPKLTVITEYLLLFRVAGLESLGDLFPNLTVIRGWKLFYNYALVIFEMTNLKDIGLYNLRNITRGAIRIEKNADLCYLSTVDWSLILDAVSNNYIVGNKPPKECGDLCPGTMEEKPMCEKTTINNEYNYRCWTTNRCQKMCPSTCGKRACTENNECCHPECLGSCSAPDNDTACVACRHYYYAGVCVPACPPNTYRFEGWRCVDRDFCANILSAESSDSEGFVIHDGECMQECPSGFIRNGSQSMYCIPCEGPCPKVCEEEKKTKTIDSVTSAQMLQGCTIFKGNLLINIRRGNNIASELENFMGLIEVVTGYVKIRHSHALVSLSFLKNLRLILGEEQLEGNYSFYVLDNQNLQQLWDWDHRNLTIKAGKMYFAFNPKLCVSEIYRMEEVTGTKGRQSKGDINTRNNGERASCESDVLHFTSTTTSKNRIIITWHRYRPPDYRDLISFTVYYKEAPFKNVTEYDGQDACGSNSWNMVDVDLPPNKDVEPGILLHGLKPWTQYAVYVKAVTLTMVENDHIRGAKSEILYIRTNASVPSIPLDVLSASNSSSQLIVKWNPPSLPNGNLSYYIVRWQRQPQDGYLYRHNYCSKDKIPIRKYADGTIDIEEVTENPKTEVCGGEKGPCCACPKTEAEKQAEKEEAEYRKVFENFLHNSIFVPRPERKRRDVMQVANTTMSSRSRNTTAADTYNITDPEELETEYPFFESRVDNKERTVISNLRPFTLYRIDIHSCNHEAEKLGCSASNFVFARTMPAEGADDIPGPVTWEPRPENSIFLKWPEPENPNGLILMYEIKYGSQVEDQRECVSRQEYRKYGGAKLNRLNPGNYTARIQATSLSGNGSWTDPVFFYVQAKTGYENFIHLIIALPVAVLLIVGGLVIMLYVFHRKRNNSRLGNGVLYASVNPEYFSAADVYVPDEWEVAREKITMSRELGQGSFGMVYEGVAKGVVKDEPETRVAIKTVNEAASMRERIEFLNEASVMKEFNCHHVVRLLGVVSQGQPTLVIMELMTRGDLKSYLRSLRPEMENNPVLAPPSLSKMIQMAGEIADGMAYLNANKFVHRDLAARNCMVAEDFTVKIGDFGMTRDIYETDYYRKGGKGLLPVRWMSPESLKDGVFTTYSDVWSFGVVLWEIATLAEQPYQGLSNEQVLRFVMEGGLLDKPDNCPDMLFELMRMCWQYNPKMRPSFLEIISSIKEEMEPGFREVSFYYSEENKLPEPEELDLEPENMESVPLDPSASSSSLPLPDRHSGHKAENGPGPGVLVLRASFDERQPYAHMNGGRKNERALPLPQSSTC

IC50 [µM]	Compound
0.024	Nc1ncnc2c1c(-c1ccc3c(c1)OC(C1CCCO1)CC3)cn2C1CC(CN2CC3CC2CS3(=O)=O)C1 (mixture of isomers) [Example 66, 7-[cis-3-((S,S)-2,2-dioxo-2λ6-thia-5-aza-bicyclo[2,2,1]hept-5-ylmethyl)-cyclobutyl]-5-[2-trans-(tetrahydro-furan-2-yl-chroman-7-yl)-7H-pyrrolo[2,3-d]pyrimidin-4-ylamine]
< 0.005	Nc1ncnc2c1c(-c1ccc3c(c1)OC(c1ccccc1)CC3)cn2[C@H]1C[C@@H](CN2CCC[C@H]2CO)C1 (mixture of isomers) [Example 14, (1-{cis-3-[4-Amino-5-((R)-2-phenyl-chroman-7-yl)-pyrrolo[2,3-d]pyrimidin-7-yl]-cyclobutylmethyl}-(S)-pyrrolidin-2-yl)-methanol and (1-{cis-3-[4-amino-5-[((S)-2-phenyl-chroman-7-yl)-pyrrolo[2,3-d]pyrimidin-7-yl]-cyclobutylmethyl}-(S)-pyrrolidin-2-yl)-methanol]
0.525	Nc1ncnc2c1c(-c1ccc3c(c1)OC(c1ccccc1)CC3)cn2[C@H]1C[C@@](O)(Cn2cnnc2)C1 (some centres unmarked) [Example 47, (E)-3-[4-Amino-5-(2-phenyl-chroman-7-yl)-pyrrolo[2,3-d]pyrimidin-7-yl]-1-[1,2,4]triazol-4-ylmethylcyclobutanol]
0.007	Nc1ncnc2c1c(-c1ccc3c(c1)OC(C1CCCO1)CC3)cn2C1CC(CN2CCS(=O)(=O)CC2)C1 (single isomer, unassigned) [Example 31, (u)-7-[3-(1,1-Dioxo-1-thiomorpholin-4-ylmethyl)-cyclobutyl]-5-[2-(tetrahydro-furan-2-yl)-chroman-7-yl]-7H-pyrrolo[2,3-d]pyrimidin-4-ylamine]
0.019	Nc1ncnc2c1c(-c1ccc3c(c1)O[C@H](c1ccccc1)CC3)cn2[C@H]1C[C@@H](CO)C1 [Example 11, {cis-3-[4-Amino-5-((S)-2-phenyl-chroman-7-yl)-pyrrolo[2,3-d]pyrimidin-7-yl]-cyclobutyl}-methanol]
0.218	Nc1nccn2c1c(-c1ccc3c(c1)OC(c1ccccc1)CC3)nc2[C@H]1C[C@@H](Cn2ccnc2CO)C1 (relative stereo) [Example 39, (1-{cis-3-[8-Amino-1-(2-phenyl-chroman-7-yl)-imidazo[1,5-a]pyrazin-3-yl]-cyclobutylmethyl}-1H-imidazol-2-yl)-methanol]
< 0.005	Nc1ncnc2c1c(-c1ccc3c(c1)OC(c1ccccc1)CC3)cn2[C@H]1C[C@@](O)(CN2CCS(=O)(=O)CC2)C1 (some centres unmarked) [Example 45, (E)-3-[4-Amino-5-(2-phenyl-chroman-7-yl)-pyrrolo[2,3-d]pyrimidin-7-yl]-1-(1,1-dioxothiomorpholin-4-ylmethyl)-cyclobutanol]
0.009	Nc1ncnc2c1c(-c1ccc3c(c1)O[C@H](c1ccccc1)CC3)cn2[C@H]1C[C@@H](CN2CCS(=O)(=O)CC2)C1 [Example 25, (S)-7-[cis-3-(1,1-dioxo-thiomorpholin-4-ylmethyl)-cyclobutyl]-5-(2-phenyl-chroman-7-yl)-7H-pyrrolo[2,3-d]pyrimidin-4-ylamine]
0.108	CC(=O)N[C@H]1CC[C@@H](n2cc(-c3ccc4c(c3)OC(c3ccccc3)CC4)c3c(N)ncnc32)CC1 (mixture of isomers) [Example 55, (±)-N-(cis-4-(4-amino-5-(2-phenylchroman-7-yl)-7H-pyrrolo[2,3-d]pyrimidin-7-yl)cyclohexyl)acetamide]
0.069	Nc1ncnc2c1c(-c1ccc3c(c1)OC(c1ccccn1)CC3)cn2C1CC(CN2CC3CC2CS3(=O)=O)C1 [Example 62, 7-[cis-3-((S,S)-2,2-Dioxo-2λ6-thia-5-aza-bicyclo[2,2,1]kept-5-ylmethyl)-cyclobutyl]-5-(2-pyridin-2-yl-chroman-7-yl)-7H-pyrrolo[2,3-d]pyrimidin-4-ylamine]
0.045	Nc1ncnc2c1c(-c1ccc3c(c1)OC(c1ccccn1)CC3)cn2[C@H]1C[C@@H](CN2CCS(=O)(=O)CC2)C1 (mixture of isomers) [Example 54, (±)-7-(cis-3-(1,1-dioxo-thiomorpholin-4-ylmethyl)cyclobutyl)-5-(2-(pyridin-2-yl)chroman-7-yl)-7H-pyrrolo[2,3-d]pyrimidin-4-amine]
0.099	CC(C)C(=O)N[C@H]1CC[C@@H](n2cc(-c3ccc4c(c3)OC(c3ccccc3)CC4)c3c(N)ncnc32)CC1 (mixture of isomers) [Example 52, (±)-N-(cis-4-(4-amino-5-(2-phenylchroman-7-yl)-7H-pyrrolo[2,3-d]pyrimidin-7-yl)cyclohexyl)isobutyramide]
0.1	(R,S)—(Z)-3-[8-Amino-1-(2-phenyl-chroman-7-yl)-imidazo[1,5-a]pyrazin-3-yl]-1-hydroxymethyl-cyclobutanol and (R,S)-(E)-3-[8-amino-1-(2-phenyl-chroman-7-yl)-imidazo[1,5-a]pyrazin-3-yl]-1-hydroxymethyl-cyclobutanol [Example 5]
0.055	Nc1ncnc2c1c(-c1ccc3c(c1)O[C@@H](c1ccccc1)CC3)cn2[C@H]1C[C@@H](CO)C1 [Example 12, {cis-3-[4-Amino-5-((R)-2-phenyl-chroman-7-yl)-pyrrolo[2,3-d]pyrimidin-7-yl]-cyclobutyl}-methanol]
0.016	Nc1ncnc2c1c(-c1ccc3c(c1)OC(c1ccccc1)CC3)cn2[C@H]1C[C@@]2(CNC(=O)O2)C1 (some centres unmarked) [Example 44, (E)-2-[4-Amino-5-(2-phenyl-chroman-7-yl)-pyrrolo[2,3-d]pyrimidin-7-yl]-5-oxa-7-aza-spiro[3.4]octan-6-one]
0.044 to 0.143	Nc1ncnc2c1c(-c1ccc3c(c1)OC(c1ccccc1)CC3)cn2C1CC(O)(CO)C1 (single isomer, unassigned) [Example 41, (Z)-3-K-Amino-5-(2-phenyl-chroman-7-yl)-pyrrolo[2,3-d]pyrimidin-7-yl]-1-hydroxymethyl-cyclobutanol]
0.036	CCOCC1CCc2ccc(-c3cn([C@H]4C[C@@H](CN5CC[S+]([O-])CC5)C4)c4ncnc(N)c34)cc2O1 (relative stereo) [Example 50, 5-(2-Ethoxymethyl-chroman-7-yl)-7-[cis-3-(1-oxo-thiomorpholin-4-ylmethyl)-cyclobutyl]-7H-pyrrolo[2,3-d]pyrimidin-4-ylamine]
0.014	Nc1ncnc2c1c(-c1ccc3c(c1)OC(c1ccccc1)CC3)cn2[C@H]1C[C@@H](Cn2ccnc2CO)C1 (mixture of isomers) [Example 18, (R,S)-(1-{cis-3-[4-Amino-5-(2-phenyl-chroman-7-yl)-pyrrolo[2,3-d]pyrimidin-7-yl]-cyclobutylmethyl}-1H-imidazol-2-yl)-methanol]
0.008	Nc1ncnc2c1c(-c1ccc3c(c1)O[C@@H](c1ccccc1)CC3)cn2[C@H]1C[C@@H](CN2CCS(=O)(=O)CC2)C1 [Example 24, (R)-7-[cis-3-(1,1-Dioxo-thiomorpholin-4-ylmethyl)-cyclobutyl]-5-(2-phenyl-chroman-7-yl)-7H-pyrrolo[2,3-d]pyrimidin-4-ylamine]
0.012	Nc1ncnc2c1c(-c1ccc3c(c1)OC(c1ccccc1)C=C3)cn2[C@H]1C[C@@H](CO)C1 (mixture of isomers) [Example 23, (R,S)-{cis-3-[4-Amino-5-(2-phenyl-2H-chromen-7-yl)-pyrrolo[2,3-d]pyrimidin-7-yl]-cyclobutyl}-methanol]
